In paper PMC8245786, “Comparative Studies on Multi-Component Pharmacokinetics of Polygonum multiflorum Thunb Extract After Oral Administration in Different Rat Models” (Frontiers in Pharmacology, 2021):

Key:
NTCP = experiment: Expression level of NTCP in rat liver (UHPLC-MS/MS signature peptide) and correlation with AUC; format: in vivo; settings: before administration of AE-PM
Excerpt: (§1) The detection method for UGT1A1 and nine other transporter proteins in the liver was comprehensively investigated in our study (35).
An Agilent 1290 Infinity series UHPLC system coupled to an Agilent 6460 series MS/MS system (Agilent Technologies, Santa Clara, CA, United States) was applied to quantitate the signature peptides in ESI positive ionization mode. […] The sequence of characteristic peptides that corresponded to UGT1A1 and the other nine transporter proteins were based on our previous experiments and listed in Table 3 .
(§2) Total membrane protein was isolated (in triplicate) from liver tissue samples according to the Native Membrane Protein Extraction Kit protocol. Subsequently, protein concentrations were determined by the BCA Protein Assay Kit. 10 µl of 5 mg/ml (or lower concentration) of a hepatocyte membrane protein incubated with 20 µl of dithiothreitol (100 mM) and 50 µl of ammonium bicarbonate buffer (50 mM, pH 7.8). After incubation at 95°C for 5 min, 20 µl of iodoacetamide (20 mM) was added to the mixture, followed by incubation at 37°C for 20 min in the dark. To concentrate the samples, ice-cold methanol (0.5 ml), chloroform (0.2 ml), and water (0.2 ml) were added. […]

UGT1A1 = experiment: Expression level of UGT1A1 in rat liver (UHPLC-MS/MS signature peptide) and correlation with AUC; format: in vivo; settings: before administration of AE-PM
Experimental: as §1
(§3) The sequence of characteristic peptides that corresponded to UGT1A1 and the other nine transporter proteins were based on our previous experiments and listed in Table 3 .
as §2, with “added. After centrifugation at 4°C for 5 min at 16,000 g, the supernatant was discarded and the pellet was washed once with ice-cold methanol (0.25 ml) and resuspended with 40 µl of reconstitution solution (equal volume of 3% sodium deoxycholate (w/v) and 5 mM ammonium bicarbonate buffer). Finally, the protein sample was digested with 10 µl of trypsin. The protein-to-trypsin ratio was 25:1 (w/w).” for “added.”

BSEP = experiment: Expression level of BSEP in rat liver (UHPLC-MS/MS signature peptide) and correlation with AUC; format: in vivo; settings: before administration of AE-PM
Experimental: as §1, §3
as §2, with “added. After centrifugation at 4°C for 5 min at 16,000 g, the supernatant was discarded and the pellet was washed once with ice-cold methanol (0.25 ml) and resuspended with 40 µl of reconstitution solution (equal volume of 3% sodium deoxycholate (w/v) and 5 mM ammonium bicarbonate buffer). Finally, the protein sample was digested with 10 µl of trypsin. The protein-to-trypsin ratio was 25:1 (w/w).” for “added.”

[1] = Serum biochemistry in ANIT and CCl4 liver injury model rats; format: in vivo, rat; settings: 24 h after model induction; before AE-PM
Experimental: Additionally, group 3 represented the CCl4-induced hepatocytes injury model, which was treated with pure CCl4 (5 ml/kg, s. c.) on day 0, 50% CCl4 (diluted in olive oil) (3 ml/kg, s. c.) on day 3, and 20% CCl4 (diluted in olive oil) (3 ml/kg, s. c.) on day 6. After 24 h, five rats selection for serum and liver collection from each of the three groups. Blood samples were collected in a coagulation tube, and were centrifuged at 4°C for 15 min (4,000 rpm), The resultant serum was used for the ALT, AST, TBIL, DBIL, TBA and ALP assays. Liver samples were dissected and stored at −80°C for further analysis, whereas the central part of the right large lobe of the liver was used for histological examination.

MDR1 = experiment: Expression level of MDR1 in rat liver (UHPLC-MS/MS signature peptide) and correlation with AUC; format: in vivo; settings: before administration of AE-PM
Experimental: as §1, §3
as §2, with “added. After centrifugation at 4°C for 5 min at 16,000 g, the supernatant was discarded and the pellet was washed once with ice-cold methanol (0.25 ml) and resuspended with 40 µl of reconstitution solution (equal volume of 3% sodium deoxycholate (w/v) and 5 mM ammonium bicarbonate buffer). Finally, the protein sample was digested with 10 µl of trypsin. The protein-to-trypsin ratio was 25:1 (w/w).” for “added.”

OCT1 = experiment: Expression level of OCT1 in rat liver (UHPLC-MS/MS signature peptide) and correlation with AUC; format: in vivo; settings: before administration of AE-PM
Experimental: as §1, §3
as §2, with “added. After centrifugation at 4°C for 5 min at 16,000 g, the supernatant was discarded and the pellet was washed once with ice-cold methanol (0.25 ml) and resuspended with 40 µl of reconstitution solution (equal volume of 3% sodium deoxycholate (w/v) and 5 mM ammonium bicarbonate buffer). Finally, the protein sample was digested with 10 µl of trypsin. The protein-to-trypsin ratio was 25:1 (w/w).” for “added.”

OATP1A4 = experiment: Expression level of OATP1A4 in rat liver (UHPLC-MS/MS signature peptide) and correlation with AUC; format: in vivo; settings: before administration of AE-PM
Experimental: as §1, §3
as §2, with “added. After centrifugation at 4°C for 5 min at 16,000 g, the supernatant was discarded and the pellet was washed once with ice-cold methanol (0.25 ml) and resuspended with 40 µl of reconstitution solution (equal volume of 3% sodium deoxycholate (w/v) and 5 mM ammonium bicarbonate buffer). Finally, the protein sample was digested with 10 µl of trypsin. The protein-to-trypsin ratio was 25:1 (w/w).” for “added.”

**Q.** Which “Reduction of NTCP expression level compared with the control group” value (NTCP) does the source give for `S=C=Nc1cccc2ccccc12` [ANIT, alpha-naphthylisothiocyanate] here?
**A.** 38.02%

**Q.** Which “Reduction of UGT1A1 expression level compared with the control group” value (UGT1A1) does the source give for `ClC(Cl)(Cl)Cl` [CCl4, Carbon tetrachloride] here?
**A.** 31.18%

**Q.** What about the “Reduction of BSEP expression level compared with the control group” value (BSEP) of the same molecule?
**A.** 26.92%

**Q.** And the “Increase of serum ALT compared with the control group” value [1]?
**A.** 4.45 folds

**Q.** What about the “Increase of serum AST compared with the control group” value [1] of the same molecule?
**A.** 2.68 folds

**Q.** What about the “Reduction of MDR1 expression level compared with the control group” value (MDR1) of the same molecule?
**A.** 34.15%

**Q.** What about the “Reduction of NTCP expression level compared with the control group” value (NTCP) of the same molecule?
**A.** 15.75%

**Q.** And the “Reduction of OCT1 expression level compared with the control group” value (OCT1)?
**A.** 22.30%

**Q.** And the “Reduction of OATP1A4 expression level compared with the control group” value (OATP1A4)?
**A.** 46.11%
